{"source": "PubChem BioAssay AID493075", "about": "(Broad Institute, 2011)", "note": "Calls of active or inactive are those of the source.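 Rule for the calls: active = luminescence drop in every repeat test, with half-maximal concentration at most ten times the top dose; inconclusive = repeat tests disagree; inactive = inactive in every repeat test.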", "data": [{"tested_on": "not listed separately", "experiment": "inhibitors of AI-2 quorum sensing in V. harveyi, dose response, LuxS, LuxPQ, dry powder, set 3 (AID 493075)", "conditions": "Vibrio harveyi JMH597 AI-2 quorum sensing luminescence, 9 h; at 16 µM (top of the series)", "values": [{"compound": "C[C@@H]1CCCCO[C@@H](CN(C)Cc2ccncc2)[C@H](C)CN([C@H](C)CO)C(=O)c2cc(NC(=O)C3CCCCC3)ccc2O1", "activity change, negative = inhibition": "0.341% (inactive)"}, {"compound": "Cc1ccc(S(=O)(=O)Nc2ccc3c(c2)CC(=O)N([C@@H](C)CO)C[C@@H](C)[C@H](CN(C)C(=O)Nc2ccc(F)cc2)O3)cc1", "activity change, negative = inhibition": "-1.6% (inactive)"}, {"compound": "C[C@H]1CN([C@@H](C)CO)C(=O)c2cc(NC(=O)Nc3ccc4c(c3)OCO4)ccc2O[C@@H]1CN(C)C(=O)Nc1ccc(C(F)(F)F)cc1", "activity change, negative = inhibition": "-5.41% (inactive)"}, {"compound": "C[C@@H]1CN([C@H](C)CO)C(=O)c2cccc(NC(=O)Nc3ccc(C(F)(F)F)cc3)c2O[C@@H]1CN(C)C(=O)Nc1ccc(C(F)(F)F)cc1", "activity change, negative = inhibition": "-16.5% (inactive)"}, {"compound": "C[C@H](CO)N1C[C@H](C)[C@H](CN(C)Cc2ccc(C(=O)O)cc2)Oc2ncc(-c3ccc(C(=O)N(C)C)cc3)cc2C1=O", "activity change, negative = inhibition": "24.5% (inactive)"}, {"compound": "C[C@@H]1CCCCO[C@@H](CN(C)C(=O)Nc2ccc(C(F)(F)F)cc2)[C@H](C)CN([C@@H](C)CO)C(=O)c2cc(NC(=O)CCC(F)(F)F)ccc2O1", "activity change, negative = inhibition": "-7.66% (inactive)"}, {"compound": "CNC[C@@H]1Oc2ccc(NC(=O)C3CCCCC3)cc2CC(=O)N([C@@H](C)CO)C[C@H]1C", "activity change, negative = inhibition": "-5.97% (inactive)"}, {"compound": "C[C@@H]1CN([C@@H](C)CO)C(=O)Cc2cc(NC(=O)CCN3CCOCC3)ccc2O[C@H]1CN(C)C(=O)Nc1ccc(C(F)(F)F)cc1", "activity change, negative = inhibition": "-2.52% (inactive)"}, {"compound": "C[C@H](CO)N1C[C@H](C)[C@@H](CN(C)C(=O)Nc2ccc(C(F)(F)F)cc2)Oc2ccc(NC(=O)Nc3ccc4c(c3)OCO4)cc2C1=O", "activity change, negative = inhibition": "-5.58% (inactive)"}, {"compound": "C[C@@H]1CCCCO[C@@H](CN(C)Cc2ccc(C(=O)O)cc2)[C@H](C)CN([C@H](C)CO)C(=O)c2cc(NC(=O)CCCN(C)C)ccc2O1", "activity change, negative = inhibition": "-4.89% (inactive)"}, {"compound": "C[C@@H]1CN([C@@H](C)CO)C(=O)Cc2cc(NC(=O)CCCN(C)C)ccc2O[C@H]1CN(C)CC1CCCCC1", "activity change, negative = inhibition": "5.19% (inactive)"}, {"compound": "O=S(=O)(Nc1ccccn1)c1ccccc1", "activity change, negative = inhibition": "-0.42% (inactive)"}, {"compound": "Cc1ccc(S(=O)(=O)Nc2ccc3c(c2)C(=O)N([C@H](C)CO)C[C@H](C)[C@@H](CN(C)Cc2ccc(C(F)(F)F)cc2)O3)cc1", "activity change, negative = inhibition": "-11% (inactive)"}, {"compound": "C[C@@H]1CCCCO[C@@H](CN(C)C(=O)Nc2cccc3ccccc23)[C@H](C)CN([C@H](C)CO)C(=O)c2cc(NC(=O)CCC(F)(F)F)ccc2O1", "activity change, negative = inhibition": "-4.12% (inactive)"}, {"compound": "C=Cn1c(C(=O)O)ccc1-c1cccs1", "activity change, negative = inhibition": "1.45% (inactive)"}, {"compound": "C[C@@H]1CN([C@@H](C)CO)C(=O)Cc2cc(NC(=O)CCN3CCOCC3)ccc2O[C@H]1CN(C)C(=O)Nc1ccc(F)cc1", "activity change, negative = inhibition": "-10.1% (inactive)"}]}, {"tested_on": "Vibrio harveyi JMH597 AI-2 quorum sensing luminescence, 9 h", "experiment": "inhibitors of AI-2 quorum sensing in V. harveyi, dose response, LuxS, LuxPQ, dry powder, set 3 (AID 493075)", "conditions": "not given", "units": {"AC50": "µM"}, "values": [{"compound": "C[C@H](CO)N1C[C@H](C)[C@@H](CN(C)Cc2ccc3c(c2)OCO3)Oc2c(NC(=O)NC3CCCCC3)cccc2C1=O", "AC50": 7.05}, {"compound": "O=C1C=C/C(=C/Br)O1", "AC50": 3.78}, {"compound": "C[C@@H]1CN([C@H](C)CO)C(=O)c2ccccc2-c2ccccc2CO[C@@H]1CN(C)Cc1ccc(Oc2ccccc2)cc1", "AC50": 12.7}, {"compound": "O=S(=O)(Nc1cccnc1)c1ccc(Oc2ccccc2)cc1", "AC50": 0.627}, {"compound": "CCc1ccc(S(=O)(=O)Nc2ccc(Br)cn2)cc1", "AC50": 3.67}, {"compound": "C=Cn1c(C(=O)O)ccc1-c1ccc(OC)cc1", "AC50": 8.59}, {"compound": "C=Cn1c(C(=O)O)ccc1-c1ccc(Cl)cc1", "AC50": 4.97}, {"compound": "CCc1ccc(-c2ccc(C(=O)O)n2C)cc1", "AC50": 4.46}]}]}
